Data set [1] in a line: In vitro metabolism, human liver microsomes. The class given is in vitro ADME. The following applies: 10 μM compound, 0.7 mg protein/mL, read-out: intrinsic clearance. How it is done: (§1) The in vitro metabolism of compound 21 was evaluated by disappearance of compound in mouse, rat, dog and human liver microsomes at 10 μM compound concentration.
(§2) Data is expressed in μL/min/mg protein.
In general terms: Liver microsomes are vesicles of endoplasmic reticulum, rich in cytochrome P450 enzymes.

Data set [2] in a line: In vitro metabolism, dog liver microsomes. The format is in vitro ADME. The following applies: 10 μM compound, 0.7 mg protein/mL, read-out: intrinsic clearance. How it is done: as §1, §2
Data set [3] is described as follows: In vitro metabolism, rat liver microsomes. The following applies: 10 μM compound, 0.7 mg protein/mL, read-out: intrinsic clearance. The format is in vitro ADME. How it is done:
as §1, §2

The test system of another data set is H3K27me3 mark. Nature of the data set: H3K27me3 Alpha Hela Assay (AlphaLISA). The class given is cell-based. The following applies: Hela cells, 72 hrs; read-out: EZH2 Cell H3K27me3 Alpha HeLa (EC50 K27me3). Put shortly:
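HeLa cells at 1,000/well were treated with ten 3-fold compound doses for 72 h at 37 °C. After lysis and histone extraction, H3K27me3 was detected by AlphaLISA with anti-K27me3 acceptor beads, biotinylated anti-H3 (C-ter) antibody (3 nM final) and streptavidin donor beads (20 μg/mL final). Signals were normalized to DMSO and curve-fitted for EC50.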

A further data set concerns the target T1, PRC2 containing wt EZH2 (Homo sapiens, UniProt Q15910).
T1 construct: made in house
Nature of the data set: EZH2 pep BSA Brij 4.0 LowE (IC50): 3H-SAM incorporation into biotinylated H3 peptide. The class given is biochemical. The following applies: read-out: EZH2 pep BSA Brij 4.0 LowE (IC50); 20 pM PRC2 wt EZH2, 0.9 μM 3H-SAM, biotinylated H3 peptide substrate, 2 μM H3K27me3 activating peptide. The method, boiled down: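 PRC2 (wt EZH2, 20 pM) pre-incubated 120 min with compound, 0.9 μM 3H-SAM and 2 μM H3K27me3 activating peptide in pH 8.5 Tris/DTT/Brij-35/0.1% BSA, 0.8% DMSO. Biotinylated H3K27me1 peptide added (2 μM stock), 5 h at room temperature, EDTA/SAH quench, streptavidin Flashplate capture. IC50 from four-parameter fit versus full-activity and no-enzyme controls.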

As a reminder, the EC50 is the midpoint of the concentration-response curve. A word on the IC50: it is the concentration at which inhibition is half-maximal.

T1 sequence (Q15910 whole entry): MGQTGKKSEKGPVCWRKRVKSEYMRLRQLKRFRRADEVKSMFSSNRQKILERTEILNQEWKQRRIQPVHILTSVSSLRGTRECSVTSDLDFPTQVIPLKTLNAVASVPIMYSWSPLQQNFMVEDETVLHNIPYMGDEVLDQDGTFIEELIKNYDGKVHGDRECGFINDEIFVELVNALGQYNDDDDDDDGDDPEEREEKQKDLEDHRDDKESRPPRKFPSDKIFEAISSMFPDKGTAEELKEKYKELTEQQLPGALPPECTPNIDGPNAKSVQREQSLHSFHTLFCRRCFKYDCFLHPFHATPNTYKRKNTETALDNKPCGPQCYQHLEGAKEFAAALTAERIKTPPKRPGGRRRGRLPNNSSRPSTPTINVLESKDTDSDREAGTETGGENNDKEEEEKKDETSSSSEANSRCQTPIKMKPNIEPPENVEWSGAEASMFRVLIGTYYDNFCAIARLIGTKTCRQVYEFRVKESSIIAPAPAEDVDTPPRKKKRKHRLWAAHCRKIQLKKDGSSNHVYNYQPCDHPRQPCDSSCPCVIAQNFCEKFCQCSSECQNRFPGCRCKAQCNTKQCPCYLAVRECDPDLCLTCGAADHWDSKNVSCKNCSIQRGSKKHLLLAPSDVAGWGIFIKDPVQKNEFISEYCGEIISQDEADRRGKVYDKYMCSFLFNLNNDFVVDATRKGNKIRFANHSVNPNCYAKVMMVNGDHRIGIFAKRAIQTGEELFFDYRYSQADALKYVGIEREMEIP
T1 sequence (O75530 whole entry partner): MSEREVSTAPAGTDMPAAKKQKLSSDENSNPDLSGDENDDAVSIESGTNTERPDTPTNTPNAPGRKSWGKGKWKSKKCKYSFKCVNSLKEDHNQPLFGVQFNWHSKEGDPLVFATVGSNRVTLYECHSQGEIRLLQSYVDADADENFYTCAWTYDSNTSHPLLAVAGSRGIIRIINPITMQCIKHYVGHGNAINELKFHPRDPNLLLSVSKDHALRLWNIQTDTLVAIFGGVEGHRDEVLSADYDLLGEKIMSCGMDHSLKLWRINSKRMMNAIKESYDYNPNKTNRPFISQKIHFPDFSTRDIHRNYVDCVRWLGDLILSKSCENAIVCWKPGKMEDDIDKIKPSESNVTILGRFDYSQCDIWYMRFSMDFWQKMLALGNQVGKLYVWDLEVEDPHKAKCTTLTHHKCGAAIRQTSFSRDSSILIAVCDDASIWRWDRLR
T1 sequence (Q15022 whole entry partner): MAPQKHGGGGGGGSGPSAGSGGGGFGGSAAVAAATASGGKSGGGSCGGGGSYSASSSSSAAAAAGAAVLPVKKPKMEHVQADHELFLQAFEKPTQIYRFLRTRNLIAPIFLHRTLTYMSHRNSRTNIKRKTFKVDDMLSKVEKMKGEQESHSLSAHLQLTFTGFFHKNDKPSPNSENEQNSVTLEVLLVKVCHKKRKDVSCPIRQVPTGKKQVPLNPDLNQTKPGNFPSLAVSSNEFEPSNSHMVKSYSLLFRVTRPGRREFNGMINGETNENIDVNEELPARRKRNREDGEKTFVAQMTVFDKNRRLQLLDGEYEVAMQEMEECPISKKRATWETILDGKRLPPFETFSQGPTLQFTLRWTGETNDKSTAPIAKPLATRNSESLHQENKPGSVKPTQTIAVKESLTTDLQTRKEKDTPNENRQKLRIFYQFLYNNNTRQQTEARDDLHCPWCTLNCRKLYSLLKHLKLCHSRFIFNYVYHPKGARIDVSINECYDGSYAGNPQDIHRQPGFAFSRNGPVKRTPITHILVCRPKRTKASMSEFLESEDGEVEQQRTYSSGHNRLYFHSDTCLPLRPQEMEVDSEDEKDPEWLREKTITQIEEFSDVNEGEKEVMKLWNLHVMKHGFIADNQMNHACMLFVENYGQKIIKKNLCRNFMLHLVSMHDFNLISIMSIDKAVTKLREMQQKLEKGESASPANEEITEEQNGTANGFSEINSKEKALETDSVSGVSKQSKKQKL
T1 sequence (Q09028 whole entry partner): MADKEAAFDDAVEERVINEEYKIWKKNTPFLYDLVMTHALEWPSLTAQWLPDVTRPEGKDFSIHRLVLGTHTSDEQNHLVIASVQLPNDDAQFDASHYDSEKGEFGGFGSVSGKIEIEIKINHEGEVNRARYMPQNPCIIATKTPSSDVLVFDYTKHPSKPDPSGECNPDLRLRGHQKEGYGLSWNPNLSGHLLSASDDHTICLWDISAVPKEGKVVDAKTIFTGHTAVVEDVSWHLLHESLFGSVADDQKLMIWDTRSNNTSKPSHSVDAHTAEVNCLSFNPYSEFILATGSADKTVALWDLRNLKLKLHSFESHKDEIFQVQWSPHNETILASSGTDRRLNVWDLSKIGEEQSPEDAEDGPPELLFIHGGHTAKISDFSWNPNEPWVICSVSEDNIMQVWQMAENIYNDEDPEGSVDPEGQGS
T1 sequence (Q6ZN18 whole entry partner): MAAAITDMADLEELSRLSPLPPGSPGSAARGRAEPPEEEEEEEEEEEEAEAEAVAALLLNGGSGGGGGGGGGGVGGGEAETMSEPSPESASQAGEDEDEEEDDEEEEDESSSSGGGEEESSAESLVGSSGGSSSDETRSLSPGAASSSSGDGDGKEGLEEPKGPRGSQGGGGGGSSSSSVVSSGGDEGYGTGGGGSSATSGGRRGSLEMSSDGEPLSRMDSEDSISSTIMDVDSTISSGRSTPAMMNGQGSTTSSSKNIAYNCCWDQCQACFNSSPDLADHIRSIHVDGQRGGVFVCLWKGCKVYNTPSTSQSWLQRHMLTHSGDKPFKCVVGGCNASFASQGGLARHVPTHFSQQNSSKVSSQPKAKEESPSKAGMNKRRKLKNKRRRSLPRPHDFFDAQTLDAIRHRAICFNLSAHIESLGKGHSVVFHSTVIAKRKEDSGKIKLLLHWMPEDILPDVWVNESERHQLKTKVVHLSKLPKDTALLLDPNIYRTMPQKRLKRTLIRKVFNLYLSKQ

For the compound `COc1cc(C)[nH]c(=O)c1CNC(=O)c1c(C)n(C(C)C2CCN(C)C(C(F)(F)F)C2)c2ccccc12` (single isomer, unassigned) [Compound 21, N-((4-methoxy-6-methyl-2-oxo-1,2-dihydropyridin-3-yl)methyl)-2-methyl-1-(1-(1-methyl-2-(trifluoromethyl)piperidin-4-yl)ethyl)-1H-indole-3-carboxamide], the microsomal CLint at 10 μM came out at 39 µL/min/mg in data set [1], 35 µL/min/mg in data set [2] and 35 µL/min/mg in data set [3]. For the same compound, the EC50 in the data set with H3K27me3 mark was under 400 nM. Also, the IC50 on PRC2 containing wt EZH2 is under 100 nM.

The values are drawn from patent US20180037568A1, “MODULATORS OF METHYL MODIFYING ENZYMES, COMPOSITIONS AND USES THEREOF” (Constellation Pharmaceuticals, Inc., priority 2015, published 2018).
